The values that follow come from patent US7727736B2, “Soluble phospholipids for use in clotting factor assays” (The University of North Carolina at Chapel Hill, priority 2003, dated 2010).

Each structure is given as a SMILES string.

Assay [1] addresses T1, FXa (Homo sapiens, UniProt P00742). As to the kind of experiment: Influence of DAPA on FXa activity in prothrombin activation. Format: biochemical. Also noted: Human prothrombin and factor Xa; purchased Hematologic Technologies Inc. (factor Xa); factor Va from human plasma, in house. As to conditions: in the presence of C6PS, concentration of DAPA used herein. On the procedure:
Despite this, it has been shown that it provides rates of prothrombin activation in the presence of PS/PC membranes equivalent to those detected by activity measurements (Wu, et al. (2002) supra; Weinreb, et al. (2003) supra). To test whether DAPA influenced the activity of FXa in the presence of C6PS, the expected DAPA fluorescence was calculated based on the rate of appearance of thrombin and MzIIa, as detected by synthetic substrate assay as recorded in FIG. 6A. This calculation has been described (Wu, et al. (2002) supra) and its results, as applied to the data herein, are shown in the inset to FIG. 6A (filled circles) along with an experimental time-course of DAPA fluorescence change (open diamonds) reflecting prothrombin activation. Similar results were obtained at the other prothrombin concentrations examined.

The target of assay [2] is T1, FXa. Details: Human prothrombin and factor Xa; purchased Hematologic Technologies Inc. (factor Xa); factor Va from human plasma, in house. As to conditions: Nesheim et al. (1979); cited from earlier work.

T1 sequence (P00742 41-179 limits assumed): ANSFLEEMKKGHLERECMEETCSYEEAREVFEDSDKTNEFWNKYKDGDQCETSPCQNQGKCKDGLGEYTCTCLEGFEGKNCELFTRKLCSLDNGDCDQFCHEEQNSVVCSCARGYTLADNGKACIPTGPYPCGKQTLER
T1 sequence (P00742 235-488 limits assumed): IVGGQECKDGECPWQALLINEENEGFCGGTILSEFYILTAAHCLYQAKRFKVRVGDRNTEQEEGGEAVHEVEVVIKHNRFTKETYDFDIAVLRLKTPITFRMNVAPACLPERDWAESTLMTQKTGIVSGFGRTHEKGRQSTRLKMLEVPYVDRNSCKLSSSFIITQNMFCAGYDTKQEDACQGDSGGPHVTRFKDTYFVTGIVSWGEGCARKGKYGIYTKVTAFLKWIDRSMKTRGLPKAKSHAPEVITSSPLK
T1 sequence (P12259 29-737 partner limits assumed): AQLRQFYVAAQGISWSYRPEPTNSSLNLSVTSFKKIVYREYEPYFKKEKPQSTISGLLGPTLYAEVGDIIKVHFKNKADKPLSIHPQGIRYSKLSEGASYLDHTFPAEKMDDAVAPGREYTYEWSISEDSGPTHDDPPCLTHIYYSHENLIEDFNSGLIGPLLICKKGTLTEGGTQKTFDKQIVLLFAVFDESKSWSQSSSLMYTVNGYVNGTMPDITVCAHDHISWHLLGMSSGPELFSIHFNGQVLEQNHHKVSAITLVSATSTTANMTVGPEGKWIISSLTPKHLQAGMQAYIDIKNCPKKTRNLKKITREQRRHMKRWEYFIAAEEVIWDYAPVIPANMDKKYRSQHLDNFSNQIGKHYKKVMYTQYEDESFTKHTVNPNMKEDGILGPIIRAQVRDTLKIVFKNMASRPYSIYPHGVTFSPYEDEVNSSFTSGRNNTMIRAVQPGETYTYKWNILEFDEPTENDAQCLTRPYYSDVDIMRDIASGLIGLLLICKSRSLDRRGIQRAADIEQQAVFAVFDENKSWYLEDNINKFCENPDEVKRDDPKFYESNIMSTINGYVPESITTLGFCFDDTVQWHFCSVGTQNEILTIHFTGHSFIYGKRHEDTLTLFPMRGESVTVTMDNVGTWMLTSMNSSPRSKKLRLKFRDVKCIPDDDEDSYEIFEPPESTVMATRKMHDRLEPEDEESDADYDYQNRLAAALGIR
T1 sequence (P12259 1574-2224 partner limits assumed): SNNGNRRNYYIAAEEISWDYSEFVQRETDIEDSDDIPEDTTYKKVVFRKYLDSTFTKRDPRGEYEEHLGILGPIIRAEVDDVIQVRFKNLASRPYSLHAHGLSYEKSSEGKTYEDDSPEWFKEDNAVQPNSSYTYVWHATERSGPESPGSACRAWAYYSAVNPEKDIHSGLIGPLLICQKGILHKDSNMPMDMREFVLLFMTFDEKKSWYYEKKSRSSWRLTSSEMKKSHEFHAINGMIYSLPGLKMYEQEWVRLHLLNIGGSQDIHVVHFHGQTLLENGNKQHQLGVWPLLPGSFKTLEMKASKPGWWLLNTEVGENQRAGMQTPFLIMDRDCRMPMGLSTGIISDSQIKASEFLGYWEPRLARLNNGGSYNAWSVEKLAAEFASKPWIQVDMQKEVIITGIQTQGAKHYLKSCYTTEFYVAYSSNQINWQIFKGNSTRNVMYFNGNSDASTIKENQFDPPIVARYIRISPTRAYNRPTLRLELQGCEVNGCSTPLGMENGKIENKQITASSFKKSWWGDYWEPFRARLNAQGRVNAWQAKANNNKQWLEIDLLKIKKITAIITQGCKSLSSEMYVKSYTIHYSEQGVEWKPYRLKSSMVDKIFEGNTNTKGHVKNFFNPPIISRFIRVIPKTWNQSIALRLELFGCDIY

Regarding `CCC1CCN(C(=O)C(CCCN=C(N)N)NS(=O)(=O)c2cccc3c(N(C)C)cccc23)CC1` (centres unmarked) [DAPA, dansylarginine-N-(3-ethyl-1,5-pentanediyl) amide], the “influence of DAPA on FXa activity” value on FXa [1] is listed as “does not influence FXa activity to a measurable extent”. Besides, on FXa [2], the “inhibition of FXa by DAPA” value is on record as “weak competitive inhibitor”.
